Results from ChEMBL document CHEMBL3632460, “Discovery of a Novel Series of Imidazo[1,2-a]pyrimidine Derivatives as Potent and Orally Bioavailable Lipoprotein-Associated Phospholipase A2 Inhibitors” (J Med Chem, 2015).
Calls of active or inactive are those of the source. No cut-off for these calls is given here.

Legend:
[1] = target: T1, Platelet-activating factor acetylhydrolase (Mus musculus) (UniProt Q60963); conditions: Plasma, at 1 µM
T1 sequence (whole entry): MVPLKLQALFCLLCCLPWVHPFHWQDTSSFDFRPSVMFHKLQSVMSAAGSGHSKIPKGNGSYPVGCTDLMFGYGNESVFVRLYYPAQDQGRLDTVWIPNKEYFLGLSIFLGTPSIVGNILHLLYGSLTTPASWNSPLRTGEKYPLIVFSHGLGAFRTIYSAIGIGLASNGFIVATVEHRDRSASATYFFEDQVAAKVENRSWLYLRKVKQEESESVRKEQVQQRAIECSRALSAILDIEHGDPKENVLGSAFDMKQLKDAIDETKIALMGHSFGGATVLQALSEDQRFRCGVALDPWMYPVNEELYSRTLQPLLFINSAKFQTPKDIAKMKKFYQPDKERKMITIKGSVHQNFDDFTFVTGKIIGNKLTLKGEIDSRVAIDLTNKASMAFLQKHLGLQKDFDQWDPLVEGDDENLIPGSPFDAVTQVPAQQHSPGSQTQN
Description: Inhibition of Lp-PLA2 in mouse plasma at 1 uM using 2-thio-PAF substrate after 10 mins

Rattus norvegicus [2] = species on record: Rattus norvegicus; conditions: Sprague-Dawley, Plasma, 10 nM
Description: Inhibition of Lp-PLA2 in Sprague-Dawley rat plasma at 10 nM using 2-thio-PAF substrate after 10 mins

in vivo [3] = conditions: Sprague-Dawley, rat, po, 25 mg/kg
Description: Cmax in Sprague-Dawley rat at 25 mg/kg, po after 48 hrs by LC-MS method

in vivo [4] = conditions: Sprague-Dawley, rat, po, 25 mg/kg; remark: listed apart in the source
Description: AUC (0 to infinity) in Sprague-Dawley rat at 25 mg/kg, po after 48 hrs by LC-MS method

in vivo [5] = conditions: Sprague-Dawley, rat, po, 25 mg/kg; remark: listed apart in the source
Description: Terminal half life in Sprague-Dawley rat at 25 mg/kg, po after 48 hrs by LC-MS method

in vitro [6] = conditions: Wistar, rat, liver S9 fractions
in vitro [7] = conditions: human, liver S9 fractions
[8] = Cmax in Sprague-Dawley rat at 50 mg/kg, po after 48 hrs by LC-MS method; format: ADME, organism-based; set-up: dose 50 mg/kg, route oral; conditions: in vivo
[9] = AUC (0 to infinity) in Sprague-Dawley rat at 50 mg/kg, po after 48 hrs by LC-MS method; format: ADME, organism-based; set-up: dose 50 mg/kg, route oral, time infinity; conditions: in vivo
[10] = Terminal half life in Sprague-Dawley rat at 50 mg/kg, po after 48 hrs by LC-MS method; format: ADME, organism-based; conditions: in vivo, read-out: beta t1/2 (converted)
[11] = target: T1, Platelet-activating factor acetylhydrolase (Mus musculus); conditions: Plasma, at 100 nM
Rattus norvegicus [12] = assay: In vivo inhibition of Lp-PLA2 in Sprague-Dawley rat at 25 mg/kg, po after 5 hrs; format: functional
Rattus norvegicus [13] = species on record: Rattus norvegicus; conditions: Sprague-Dawley, 25 mg/kg
Description: In vivo inhibition of Lp-PLA2 in Sprague-Dawley rat at 25 mg/kg, po measured over 24 hrs

in vitro [14] = conditions: Wistar, rat, liver S9 fractions; remark: listed apart in the source
in vitro [15] = conditions: human, liver S9 fractions; remark: listed apart in the source

Structure (SMILES): N#Cc1cc(COc2ccn3c(-c4cncnc4)cnc3n2)ccc1Oc1ccc(Cl)c(C(F)(F)F)c1
- inhibition [1]: 0%
- inhibition (Rattus norvegicus [2]): 14%
- Cmax at 48 h (in vivo [3]): 1.4 µg/mL
- AUC(0-inf) at 48 h (in vivo [4]): 16.1 µg·h/mL
- half-life at 48 h (in vivo [5]): 3.24 h
- half-life at 0.1 µM (in vitro [6]): 0.667 h
- half-life at 0.1 µM (in vitro [7]): 1.77 h

Structure (SMILES): CCN(CC)CCN(Cc1ccc(-c2ccc(C(F)(F)F)cc2)cc1)C(=O)Cn1c(SCc2ccc(F)cc2)nc(=O)c2c1CCC2 [DARAPLADIB]
- Cmax [8]: 0.15 µg/mL
- AUC(0-inf) [9]: 2.11 µg·h/mL
- half-life [10]: 11.5 h
- inhibition [11]: 96%
- inhibition [1]: 99%

Structure (SMILES): Fc1cc(COc2ccn3c(-c4cncnc4)cnc3n2)cc(F)c1Oc1ccc(Cl)c(C(F)(F)F)c1
- inhibition [1]: 8%
- half-life at 0.1 µM (in vitro [6]): 3.27 h
- half-life at 0.1 µM (in vitro [7]): 3.53 h

Structure (SMILES): FC(F)(F)c1cc(Oc2ccc(COc3ccn4c(-c5cncnc5)cnc4n3)cc2)ccc1Cl
- inhibition in vivo at 25 mg/kg (Rattus norvegicus [12]): 75%
- inhibition (Rattus norvegicus [13]): Active
- inhibition [11]: 10%
- inhibition [1]: 56%
- inhibition (Rattus norvegicus [2]): 10%
- Cmax at 48 h (in vivo [3]): 3.52 µg/mL
- AUC(0-inf) at 48 h (in vivo [4]): 88 µg·h/mL
- half-life at 48 h (in vivo [5]): 9.44 h
- half-life at 0.1 µM (in vitro [6]): 5.8 h
- half-life at 0.1 µM (in vitro [7]): 1.93 h

Structure (SMILES): FC(F)(F)c1cc(Oc2ccc(CCOc3ccn4c(-c5cncnc5)cnc4n3)cc2)ccc1Cl
- inhibition [11]: 2%
- inhibition [1]: 53%
- half-life at 0.1 µM (in vitro [6]): 1.83 h
- half-life at 0.1 µM (in vitro [7]): 0.7 h
- CLint scaled at 0.1 µM (in vitro [14]): 2.06 L/h/kg
- CLint scaled at 0.1 µM (in vitro [15]): 3.31 L/h/kg

Structure (SMILES): Fc1cc(COc2ccn3c(-c4cncnc4)cnc3n2)ccc1Oc1ccc(Cl)c(C(F)(F)F)c1
- inhibition in vivo at 25 mg/kg (Rattus norvegicus [12]): 75%
- inhibition (Rattus norvegicus [13]): Active
- inhibition [1]: 13%
- inhibition (Rattus norvegicus [2]): 11%
- Cmax at 48 h (in vivo [3]): 2.6 µg/mL
- AUC(0-inf) at 48 h (in vivo [4]): 78.1 µg·h/mL
- half-life at 48 h (in vivo [5]): 13.3 h
- half-life at 0.1 µM (in vitro [6]): 2.82 h
- half-life at 0.1 µM (in vitro [7]): 5.52 h

Structure (SMILES): Cn1cc(-c2cnc3nc(OCc4ccc(Oc5ccc(Cl)c(C(F)(F)F)c5)cc4)ccn23)cn1
- inhibition [1]: 28%
- inhibition (Rattus norvegicus [2]): 13%
- half-life at 0.1 µM (in vitro [7]): 3 h
